Reference: patent US20230271954A1 (Gossamer Bio Services, Inc., priority 2020, published 2023)

Columns and labels:
DGKα = DGKα (Homo sapiens, UniProt P23743); test: DGKα biochemical assay (ADP-Glo); conditions: read-out: DGK α IC50
Summary of the method: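 ADP-Glo kinase assay using OAG/PS (1:2) lipid substrate, sonicated, in HEPES pH 7.0 buffer with MgCl2, CaCl2, DTT, BSA, Triton X-100. Enzyme preincubated with compound 30 min at RT; substrate with ATP (DGKα: 400 μM) added, 45 min RT. Luminescence read; % inhibition vs DMSO and no-enzyme controls.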

DGKζ = molecular target: T1, DGKζ (Homo sapiens, UniProt Q13574); test: DGKζ biochemical assay (ADP-Glo); conditions: read-out: DGK ζ IC50
T1 construct: purchased Carna 12-110
T1 sequence (Q13574 1-929 isoform Q13574-4): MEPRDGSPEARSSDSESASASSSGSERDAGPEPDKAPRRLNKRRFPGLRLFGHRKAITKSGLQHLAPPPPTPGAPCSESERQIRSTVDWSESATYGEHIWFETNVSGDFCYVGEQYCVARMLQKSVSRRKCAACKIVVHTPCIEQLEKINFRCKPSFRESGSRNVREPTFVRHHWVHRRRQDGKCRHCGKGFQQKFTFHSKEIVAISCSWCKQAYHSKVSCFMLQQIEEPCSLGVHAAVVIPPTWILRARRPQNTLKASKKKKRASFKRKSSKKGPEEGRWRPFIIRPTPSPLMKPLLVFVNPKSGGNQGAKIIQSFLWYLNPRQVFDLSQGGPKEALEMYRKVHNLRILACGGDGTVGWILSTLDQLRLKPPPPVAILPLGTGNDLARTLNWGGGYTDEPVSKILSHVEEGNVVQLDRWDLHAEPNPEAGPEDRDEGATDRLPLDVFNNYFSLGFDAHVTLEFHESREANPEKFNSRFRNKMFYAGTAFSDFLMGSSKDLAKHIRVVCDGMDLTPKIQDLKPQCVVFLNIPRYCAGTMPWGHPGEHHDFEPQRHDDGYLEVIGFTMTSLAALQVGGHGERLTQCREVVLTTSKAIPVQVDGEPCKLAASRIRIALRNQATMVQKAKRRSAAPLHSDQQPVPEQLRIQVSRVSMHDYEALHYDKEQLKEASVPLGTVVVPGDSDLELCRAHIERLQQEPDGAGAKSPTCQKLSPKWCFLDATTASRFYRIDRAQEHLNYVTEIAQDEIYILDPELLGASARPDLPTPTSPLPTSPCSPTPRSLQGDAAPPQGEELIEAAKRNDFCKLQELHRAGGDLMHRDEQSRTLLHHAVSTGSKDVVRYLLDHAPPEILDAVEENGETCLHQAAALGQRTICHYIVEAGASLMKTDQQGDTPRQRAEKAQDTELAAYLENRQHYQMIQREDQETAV

DGKα, sequence (P23743 whole entry): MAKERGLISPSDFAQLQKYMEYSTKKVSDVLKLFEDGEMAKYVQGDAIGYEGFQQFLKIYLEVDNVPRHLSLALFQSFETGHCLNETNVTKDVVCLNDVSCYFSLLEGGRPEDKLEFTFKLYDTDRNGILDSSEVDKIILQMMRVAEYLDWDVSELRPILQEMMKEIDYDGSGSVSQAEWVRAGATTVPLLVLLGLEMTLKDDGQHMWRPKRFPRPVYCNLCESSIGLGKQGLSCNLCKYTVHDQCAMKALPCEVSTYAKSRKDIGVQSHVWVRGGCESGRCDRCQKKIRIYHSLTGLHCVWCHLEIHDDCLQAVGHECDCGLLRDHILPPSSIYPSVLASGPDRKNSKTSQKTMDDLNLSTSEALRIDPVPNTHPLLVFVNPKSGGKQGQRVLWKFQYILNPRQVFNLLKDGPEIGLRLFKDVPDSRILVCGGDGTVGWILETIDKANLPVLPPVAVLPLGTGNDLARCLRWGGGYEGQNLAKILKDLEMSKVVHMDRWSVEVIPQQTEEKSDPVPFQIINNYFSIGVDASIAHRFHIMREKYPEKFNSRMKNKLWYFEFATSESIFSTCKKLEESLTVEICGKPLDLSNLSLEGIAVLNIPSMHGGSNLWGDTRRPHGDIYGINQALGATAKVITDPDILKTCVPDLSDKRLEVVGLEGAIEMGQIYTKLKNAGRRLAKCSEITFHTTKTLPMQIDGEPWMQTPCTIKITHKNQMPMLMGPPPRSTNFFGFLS

An IC50 (DGKα) of 100 to 1000 nM and an IC50 (DGKζ) of at least 1000 nM were found for COc1cccc(N(CC2CC2)[C@H]2CC[C@@H](N(C)c3cc(=O)n(C)c4ccc(C#N)nc34)CC2)c1 [Example 12, cis-8-((4-((cyclopropylmethyl)(3-methoxyphenyl)amino)cyclohexyl)(methyl)amino)-5-methyl-6-oxo-5,6-dihydro-1,5-naphthyridine-2-carbonitrile] in this work.
An IC50 (DGKα) of 10 to 100 nM and an IC50 (DGKζ) of 100 to 1000 nM were found for Cn1c(=O)c(C#N)c(N(C)[C@H]2CC[C@@H](N(CC3CCC3)c3cccc4c3OCO4)CC2)c2nc(Cl)ccc21 [Example 110, cis-4-((-4-(benzo[d][1,3]dioxol-4-yl(cyclobutylmethyl)amino)cyclohexyl)(methyl)amino)-6-chloro-1-methyl-2-oxo-1,2-dihydro-1,5-naphthyridine-3-carbonitrile] in this work.
An IC50 (DGKα) of 10 to 100 nM and an IC50 (DGKζ) of at least 1000 nM were found for CN(c1c(C#N)c(=O)n(C)c2ccc(Cl)nc12)C1CCC(N(CC2CCC2)c2ccc(CN3CCOCC3)cc2)CC1 (single isomer, unassigned) [Example 191, (cis or trans)-6-chloro-4-((4-((cyclobutylmethyl)(4-(morpholinomethyl)phenyl)amino)cyclohexyl) (methyl)amino)-1-methyl-2-oxo-1,2-dihydro-1,5-naphthyridine-3-carbonitrile] in this work.
An IC50 (DGKα) of at least 1000 nM and an IC50 (DGKζ) of 10 to 100 nM were found for Cc1ccc(F)cc1N(CC1CC1)[C@H]1CC[C@H](N(C)c2c(C#N)c(=O)n(C)c3ccc(C#N)nc23)CC1 [Example 117, trans-8-((4-((cyclopropylmethyl)(5-fluoro-2-methylphenyl)amino)cyclohexyl)(methyl)amino)-5-methyl-6-oxo-5,6-dihydro-1,5-naphthyridine-2,7-dicarbonitrile] in this work.
An IC50 (DGKα) of 10 to 100 nM and an IC50 (DGKζ) of 10 to 100 nM were found for Cn1c(=O)c(C#N)c(N(C)[C@H]2CC[C@H](N(CC3CC3)c3ccc(F)c(OC4CC4)c3)CC2)c2nc(C#N)ccc21 [Example 135, trans-8-((-4-((3-cyclopropoxy-4-fluorophenyl) (cyclopropylmethyl)amino)cyclohexyl)(methyl)amino)-5-methyl-6-oxo-5,6-dihydro-1,5-naphthyridine-2,7-dicarbonitrile] in this work.
An IC50 (DGKα) of 10 to 100 nM and an IC50 (DGKζ) of 100 to 1000 nM were found for Cn1c(=O)cc(N(C)[C@H]2CC[C@@H](N(CC3CC3)c3ccc4c(c3)COC4)CC2)c2nc(C#N)ccc21 [Example 192, cis-8-((4-((cyclopropylmethyl)(1,3-dihydroisobenzofuran-5-yl)amino)cyclohexyl) (methyl)amino)-5-methyl-6-oxo-5,6-dihydro-1,5-naphthyridine-2-carbonitrile] in this work.
An IC50 (DGKα) of 100 to 1000 nM and an IC50 (DGKζ) of 100 to 1000 nM were found for Cn1c(=O)c(C#N)c(N(C)[C@H]2CC[C@H](N(CC3CC3)c3ccc(F)c(CN4CCOCC4)c3)CC2)c2nc(C#N)ccc21 [Example 174, trans-8-((-4-((cyclopropylmethyl)(4-fluoro-3-(morpholinomethyl)phenyl)amino)cyclohexyl) (methyl)amino)-5-methyl-6-oxo-5,6-dihydro-1,5-naphthyridine-2,7-dicarbonitrile] in this work.
An IC50 (DGKα) of at least 1000 nM and an IC50 (DGKζ) of at least 1000 nM were found for Cc1cc(F)cc(N(CC2CC2)[C@H]2CC[C@H](N(C)c3cc(=O)n(C)c4ccc(C#N)nc34)CC2)c1 [Example 89] in this work.
An IC50 (DGKα) of 100 to 1000 nM and an IC50 (DGKζ) of 100 to 1000 nM were found for COc1cc(N(CC2CC2)[C@H]2CC[C@H](N(C)c3c(C#N)c(=O)n(C)c4ccc(C#N)nc34)CC2)cc(OC)c1F [Example 115, trans-8-((-4-((cyclopropylmethyl)(4-fluoro-3,5-dimethoxyphenyl)amino)cyclohexyl)(methyl)amino)-5-methyl-6-oxo-5,6-dihydro-1,5-naphthyridine-2,7-dicarbonitrile] in this work.
An IC50 (DGKα) of 100 to 1000 nM and an IC50 (DGKζ) of 10 to 100 nM were found for Cn1c(=O)c(C#N)c(N(C)[C@H]2CC[C@@H](N(CC3CC3)c3ccc4c(c3)OCO4)CC2)c2nc(Cl)ccc21 [Example 78] in this work.
An IC50 (DGKα) of 100 to 1000 nM and an IC50 (DGKζ) of 100 to 1000 nM were found for Cc1cc(F)ccc1N(C[C@H]1CCOC1)[C@H]1CC[C@H](N(C)c2c(C#N)c(=O)n(C)c3ccc(C#N)nc23)CC1 [Example 165, trans-8-((-4-((4-fluoro-2-methylphenyl)(((R)-tetrahydrofuran-3-yl)methyl)amino)cyclohexyl) (methyl)amino)-5-methyl-6-oxo-5,6-dihydro-1,5-naphthyridine-2,7-dicarbonitrile] in this work.
An IC50 (DGKα) of 100 to 1000 nM and an IC50 (DGKζ) of 10 to 100 nM were found for COc1cc(F)ccc1N(C1CC1)[C@H]1CC[C@@H](N(C)c2c(C#N)c(=O)n(C)c3ccc(Cl)nc23)CC1 [Example 3H, cis-6-chloro-4-((4-(cyclopropyl(4-fluoro-2-methoxyphenyl)amino)cyclohexyl)(methyl)amino)-1-methyl-2-oxo-1,2-dihydro-1,5-naphthyridine-3-carbonitrile] in this work.
An IC50 (DGKα) of at least 1000 nM and an IC50 (DGKζ) of at least 1000 nM were found for Cn1c(=O)c(C#N)c(N(C)[C@H]2CC[C@@H](N(CC3CC3)c3cccc4c3oc(=O)n4C)CC2)c2nc(C#N)ccc21 [Example 200, cis-8-((-4-((cyclopropylmethyl)(3-methyl-2-oxo-2,3-dihydrobenzo[d]oxazol-7-yl)amino)cyclohexyl) (methyl)amino)-5-methyl-6-oxo-5,6-dihydro-1,5-naphthyridine-2,7-dicarbonitrile] in this work.
An IC50 (DGKα) of under 10 nM and an IC50 (DGKζ) of at least 1000 nM were found for COc1cc(N(CC2CC2)[C@H]2CC[C@H](N(C)c3c(C#N)c(=O)n(C)c4ccc(Cl)nc34)CC2)cc(F)c1F [Example 85] in this work.
An IC50 (DGKα) of 100 to 1000 nM and an IC50 (DGKζ) of 100 to 1000 nM were found for Cn1c(=O)cc(N(C)[C@H]2CC[C@@H](N(CC3CCC3)c3cccc4c3OCO4)CC2)c2nc(C#N)ccc21 [Example 111, cis-8-((-4-(benzo[d][1,3]dioxol-4-yl(cyclobutylmethyl)amino)cyclohexyl)(methyl)amino)-5-methyl-6-oxo-5,6-dihydro-1,5-naphthyridine-2-carbonitrile] in this work.
An IC50 (DGKα) of 10 to 100 nM and an IC50 (DGKζ) of at least 1000 nM were found for Cn1c(=O)cc(N(C)[C@H]2CC[C@@H](N(CC3CCS(=O)(=O)CC3)c3ccc(F)cc3)CC2)c2nc(C#N)ccc21 [Example 211, cis-8-((4-(((1,1-dioxidotetrahydro-2H-thiopyran-4-yl)methyl)(4-fluorophenyl)amino)cyclohexyl)(methyl)amino)-5-methyl-6-oxo-5,6-dihydro-1,5-naphthyridine-2-carbonitrile] in this work.
An IC50 (DGKα) of at least 1000 nM and an IC50 (DGKζ) of at least 1000 nM were found for Cc1cc2c(cc1N(CC1CCC1)[C@H]1CC[C@H](N(C)c3c(C#N)c(=O)n(C)c4ccc(Cl)nc34)CC1)OCO2 [Example 145, trans-6-chloro-4-((4-((cyclobutylmethyl)(6-methylbenzo[d][1,3]dioxol-5-yl)amino)cyclohexyl) (methyl)amino)-1-methyl-2-oxo-1,2-dihydro-1,5-naphthyridine-3-carbonitrile] in this work.
An IC50 (DGKα) of at least 1000 nM and an IC50 (DGKζ) of at least 1000 nM were found for Cc1[nH]c2ccccc2c1C(=O)N[C@H]1CC[C@H](N(CC2COC2)c2ccccc2)CC1 [Example 4C, trans-2-Methyl-N-(4-((oxetan-3-ylmethyl)(phenyl)amino)cyclohexyl)-1H-indole-3-carboxamide] in this work.
An IC50 (DGKα) of at least 1000 nM and an IC50 (DGKζ) of at least 1000 nM were found for Cn1c(=O)c(C#N)c(N(C)[C@H]2CC[C@H](N(CC3CCC3)c3ccc(F)cc3CO)CC2)c2nc(Cl)ccc21 [Example 154, trans-6-chloro-4-((4-((cyclobutylmethyl)(4-fluoro-2-(hydroxymethyl)phenyl)amino)cyclohexyl)(methyl)amino)-1-methyl-2-oxo-1,2-dihydro-1,5-naphthyridine-3-carbonitrile] in this work.
